Among the data in patent US11230526B1, “Cylcoalkenyl derivatives useful as agonists of the GPR120 and/or GPR40 receptors” (Janssen Pharmaceutica NV, priority 2018, dated 2022) are EC50 values, retold here.

What all share (format): cell-based
Test [1] deals with T1, Human GPR120 short form (Homo sapiens, UniProt Q5NUL3).
T1 construct: expressed in transfected cells
T1 sequence (Q5NUL3 1-361): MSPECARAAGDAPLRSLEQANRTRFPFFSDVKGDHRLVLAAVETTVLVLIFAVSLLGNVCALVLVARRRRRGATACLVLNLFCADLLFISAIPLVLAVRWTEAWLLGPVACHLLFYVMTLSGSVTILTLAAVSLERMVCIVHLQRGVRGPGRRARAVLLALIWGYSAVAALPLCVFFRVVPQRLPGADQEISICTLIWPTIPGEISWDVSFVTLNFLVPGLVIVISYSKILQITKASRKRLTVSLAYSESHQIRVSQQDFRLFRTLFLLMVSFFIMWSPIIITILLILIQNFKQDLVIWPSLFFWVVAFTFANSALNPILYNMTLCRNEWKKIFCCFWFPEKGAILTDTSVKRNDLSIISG
Put plainly: Human GPR120 calcium flux assay, Procedure Calcium B (4200 cells/well). The procedure, abridged:
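Agonist EC50 came from a four-parameter fit of RFU (Fmax−Fmin) read over 300 s on FLIPR. Cells were HEK293 stably transfected with human GPR120 (NM_001195755.1) at 4200 per well, serum-starved 1 h and loaded with Fluo-4 NW dye with probenecid before ligand addition.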
Background: Calcium assays in cells follow changes in intracellular calcium, usually with a dye or a luminescent sensor.

Test [2] deals with T2, human GPR40 (Homo sapiens, UniProt O14842).
T2 construct: expressed in transfected cells
Put plainly: GPR40 calcium flux assay, human GPR40. The following applies: HEK293 cells stably expressing GPR40; table does not say human or rat. The procedure, abridged:
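Cells preincubated 1 h at 37° C. in HBSS, 20 mM HEPES, 0.1% BSA, then Fluo 8 calcium dye 30 min at 37° C. and 15 min at room temperature.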

For test [3], the target named is T1, Human GPR120 short form. Put plainly: Human GPR120 calcium flux assay, Procedure Calcium A (2500 cells/well). The source says: Human GPR120 in Calcium Flux Assay
This in vitro assay serves to assess test compound agonist activity against the short splice variant (SVS with Accession number NM_001195755.1 confirmed by sequencing data) of the GPR120 receptor. The Human Short splice variant #2 (NM_001195755.1) is missing an in-frame coding exon compared to variant 1 (the Human Long splice variant NM_181745.3), resulting in a shorter isoform (GPR120-S) lacking a 16 aa protein segment compared to isoform GPR120-L. The assay platform utilizes HEK-293 cells stably transfected to express the Human GPR120 short form. These cells are first loaded with the Ca^+2 sensitive dye, Fluo-4 NW. Upon stimulation, intracellular released Ca^+2 can bind to the dye and alter its fluorescence intensity. This increase in fluorescence signal, and thus the flux in intracellular [Ca^2+], is detected and quantitated by fluorescence imaging using a FLIPR reader. The effect of the agonist is measured as a function of concentration and used to calculate an EC50 based upon a response curve.
In this procedure 2500 cells/well were employed.
A Human GPR120 clone (Genbank accession number NM_001195755.1) was placed into the pcDNA3.1 mammalian expression vector carrying the neomycin resistance gene. A stable mammalian cell was generated by placing the above clone into a HEK293 background. Clonal cells responding to long chain fatty acids had expression levels of GPR120 confirmed by RT-qPCR. Human HEK-GPR120 cells were cultured in Dulbecco's Modified Eagle's Medium (DMEM)/F12 medium supplemented with 10% fetal bovine serum (FBS), 1% L-Glutamine and 1% penicillin/streptomycin and 0.5 mg/ml G-418. Cells were split 2 times a week to keep the cells in the log-phase growth.
In preparation for the assay, HEK cells stably transfected with Human GPR120 (2.5K cells per well in 25 uL growth medium) were seeded into 384-well plates and then incubated overnight (37° C., 5% CO2). The next day, the media was changed to 20 μL assay buffer and the cell starved for 1 h at 37° C. The dye loading solution (2× dye) was prepared using 10 mL assay buffer, 100 μL of 250 mM probenecid, 1 bottle of Component A, and 20 μl of dye in DMSO. Twenty μL of the 2× dye loading buffer was then added to each well. The plates were incubated at 37° C. for 30 min, then at room temperature for an additional 15 minutes, before performing the assay on FLIPR.
The assay was performed on a FLIPR plate reader using the following parameters. Baseline was read for 10 seconds at 1 sec intervals. The program was set to transfer 10 μL of ligand from compound plate to cell plate after baseline reading. Aspiration was executed at: 10 μL/sec speed, 4.6 μL height, Dispensing was executed at: 30 μL/sec speed, 45 μL height. After compound addition, each well was read for 300 sec, with measurements collected at 1 sec intervals.
The kinetic data from the FLIPR was based upon a 5 minute window for data collection. The fluorescence of each sample well was used for individual calculations of a normalized RFU value, which was defined as maximum response minus the minimum response. The normalized fluorescence reading (RFU) was calculated as follows: RFU=Fmax−Fmin
The Fitting Equation was: Y=Bottom+(Top-Bottom)/(1+10^((Log EC50−X)*HillSlope)), where X is the log of the concentration and Y is the response.

Each structure is given as a SMILES string.

T2 sequence (O14842 whole entry): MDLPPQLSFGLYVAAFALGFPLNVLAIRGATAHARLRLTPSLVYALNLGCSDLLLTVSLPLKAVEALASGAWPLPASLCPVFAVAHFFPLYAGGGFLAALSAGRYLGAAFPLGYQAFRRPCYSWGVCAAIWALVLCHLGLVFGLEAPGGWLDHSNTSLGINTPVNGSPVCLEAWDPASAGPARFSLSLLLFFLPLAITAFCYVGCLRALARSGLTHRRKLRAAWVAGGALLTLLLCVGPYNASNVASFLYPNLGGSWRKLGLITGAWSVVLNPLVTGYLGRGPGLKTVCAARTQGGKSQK

One may read the EC50 as the concentration needed to bring the measured effect to its halfway point. As for `Cc1c(CCC(=O)O)ccc(OCC2=C(c3ncccn3)CCCC2)c1C` [Compound 475, 3-[2,3-dimethyl-4-[(2-pyrimidin-2-ylcyclohexen-1-yl)methoxy]phenyl]Propanoic Acid], the values for the EC50 in test [1], in test [2] and in test [3] were 2270 nM, greater than 5 µM and 4480 nM, respectively.
The like results for `Cc1ccc(C2=C(COc3ccc(CCC(=O)O)c(F)c3F)CCC2)cc1[N+](=O)[O-]` [Compound 92, 3-(2,3-difluoro-4-((2-(4-methyl-3-nitrophenyl)cyclopent-1-en-1-yl)methoxy)phenyl)Propanoic Acid] were, in that order, 373 nM, greater than 5 µM and 1260 nM.
Taken in the same sequence, the figures for `O=C(O)CCc1ccc(OCC2=C(c3ccccc3)CCC2)cc1` [Compound 19, 3-(4-((2-phenylcyclopent-1-en-1-yl)methoxy)phenyl)Propanoic Acid] were 603 nM, greater than 5 µM and 1930 nM.
Taken in the same sequence, the figures for `Cc1c(CCC(=O)O)ccc(OCC2=C(c3ccc(Cl)c(F)c3)CCC2)c1C` [Compound 157, 3-(4-((2-(4-chloro-3-fluorophenyl)cyclopent-1-en-1-yl)methoxy)-2,3-dimethylphenyl)Propanoic Acid] were 67 nM, greater than 5 µM and 97 nM.
As for `Cc1c(CCC(=O)O)ccc(OCC2=C(c3ccc(I)cc3)CCCC2)c1C` [Compound 476, 3-[4-[[2-(4-iodophenyl)cyclohexen-1-yl]methoxy]-2,3-dimethyl-phenyl]Propanoic Acid], the EC50 is 475 nM in test [1], greater than 5 µM in test [2] and 1330 nM in test [3].
Turning to `O=C(O)CCc1ccc(OCC2=C(c3ccc(Cl)cc3)CCCC2)cc1F` [Compound 504, 3-[4-[[2-(4-chlorophenyl)cyclohexen-1-yl]methoxy]-2-fluoro-phenyl]Propanoic Acid], the EC50 in test [1] came to 330 nM; in test [2] it was 4.02 µM; in test [3] it was 2820 nM.
The like results for `Cc1ccc(C2=C(COc3ccc(CCC(=O)O)c(C)c3C)CCC2)cc1[N+](=O)[O-]` [Compound 115, 3-(2,3-dimethyl-4-((2-(4-methyl-3-nitrophenyl)cyclopent-1-en-1-yl)methoxy)phenyl)Propanoic Acid] were, in that order, 852 nM, greater than 5 µM and 1120 nM.
The like results for `Cc1c(CCC(=O)O)ccc(OCC2=C(c3ccc(C#N)cc3)CCCC2)c1C` [Compound 520, 3-[4-[[2-(4-cyanophenyl)cyclohexen-1-yl]methoxy]-2,3-dimethyl-phenyl]Propanoic Acid] were, in that order, 1450 nM, greater than 5 µM and 2360 nM.
Taken in the same sequence, the figures for `Cc1cc(OCC2=C(c3ccc(Cl)cc3)CCCC2)ccc1CCC(=O)O` [Compound 506, 3-[4-[[2-(4-chlorophenyl)cyclohexen-1-yl]methoxy]-2-methyl-phenyl]Propanoic Acid] were 182 nM, greater than 5 µM and 1590 nM.
`Cc1c(CCC(=O)O)ccc(OCC2=C(c3ccc(Cl)cc3)CCC2(O)C(F)(F)F)c1C` (centres unmarked) [Compound 69, 3-[4-[[2-(4-chlorophenyl)-5-hydroxy-5-(trifluoromethyl)cyclopenten-1-yl]methoxy]-2,3-dimethyl-phenyl]Propanoic Acid]: the EC50 in test [1] was 2460 nM; in test [2] it was greater than 5 µM; in test [3] it was greater than 5000 nM.
The like results for `Cc1c(CCC(=O)O)ccc(OCC2=C(c3ccc(C#N)cc3)CCC2)c1C` [Compound 146, 3-[4-[[2-(4-cyanophenyl)cyclopenten-1-yl]methoxy]-2,3-dimethyl-phenyl]Propanoic Acid] were, in that order, 208 nM, greater than 5 µM and 1560 nM.
Regarding `O=C(O)CCc1ccc(OCC2=C(c3ccc(Cl)cc3)CCC2O)c(F)c1F` (centres unmarked) [Compound 45], the EC50 in test [2] is greater than 5 µM; in test [3], greater than 20000 nM.
Taken in the same sequence, the figures for `Cc1c(CCC(=O)O)ccc(OCC2=C(c3ccc(S(C)(=O)=O)cc3)CCCC2)c1C` [Compound 515, 3-[2,3-dimethyl-4-[[2-(4-methylsulfonylphenyl)cyclohexen-1-yl]methoxy]phenyl]Propanoic Acid] were greater than 5 µM and greater than 5000 nM.
Turning to `Cc1c(CCC(=O)O)ccc(OCC2=C(c3ccccn3)CCCC2)c1C` [Compound 490, 3-[2,3-dimethyl-4-[[2-(2-pyridyl)cyclohexen-1-yl]methoxy]phenyl]Propanoic Acid], the EC50 in test [1] was 743 nM; in test [2] it was greater than 5 µM; in test [3], 2190 nM.
Taken in the same sequence, the figures for `Cc1c(CCCC(=O)O)ccc(OCC2=C(c3ccc(Cl)cc3)CCC2)c1C` [Compound 127, 4-[4-[[2-(4-chlorophenyl)cyclopenten-1-yl]methoxy]-2,3-dimethyl-phenyl]Butanoic Acid] were 668 nM, greater than 5 µM and 2780 nM.
In the case of `CC(=O)Nc1ccc(C2=C(COc3ccc(CCC(=O)O)c(C)c3C)CCCC2)cc1` [Compound 495, 3-[4-[[2-(4-acetamidophenyl)cyclohexen-1-yl]methoxy]-2,3-dimethyl-phenyl]Propanoic Acid], the EC50 was greater than 5 µM in test [2] and greater than 5000 nM in test [3].
Regarding `Cc1c(CCC(=O)O)ccc(OCC2=C(c3ccc(C(C)C)cc3)CCCC2)c1C` [Compound 516, 3-[4-[[2-(4-isopropylphenyl)cyclohexen-1-yl]methoxy]-2,3-dimethyl-phenyl]Propanoic Acid], the EC50 in test [1] is 755 nM; in test [2], greater than 5 µM; in test [3], 4610 nM.
`Cc1c(CCC(=O)O)ccc(OCC2=C(c3ccc([S+](C)[O-])cc3)CCCC2)c1C` (centres unmarked) [Compound 507, 3-[2,3-dimethyl-4-[[2-(4-methylsulfinylphenyl)cyclohexen-1-yl]methoxy]phenyl]Propanoic Acid]: the values for the EC50 in test [2] and in test [3] were greater than 10 µM and greater than 5000 nM, respectively.
The like results for `COc1ccc(C2=C(COc3ccc(CCC(=O)O)c(C)c3C)CCC2)cc1` [Compound 21, 3-(4-((2-(4-methoxyphenyl)cyclopent-1-en-1-yl)methoxy)-2,3-dimethylphenyl)Propanoic Acid] were, in that order, greater than 5 µM and greater than 20000 nM.
Consider `Cc1c(CCC(=O)O)ccc(OCC2=C(c3cccc(N(C)C)c3)CCC2)c1C` [Compound 114, 3-[4-[[2-[3-(dimethylamino)phenyl]cyclopenten-1-yl]methoxy]-2,3-dimethyl-phenyl]Propanoic Acid], for which the results for the EC50 in test [2] and in test [3] were greater than 5 µM and greater than 5000 nM, respectively.
Consider `COc1cc(C2=C(COc3ccc(CCC(=O)O)c(C)c3C)CCC2)ccc1C` [Compound 113, 3-(4-((2-(3-methoxy-4-methylphenyl)cyclopent-1-en-1-yl)methoxy)-2,3-dimethylphenyl)Propanoic Acid], for which the 50% effective concentration (EC50) in test [2] was greater than 5 µM; in test [3] it was greater than 5000 nM.
